For 51 compounds, EC90 results are on record in patent US8697694B2, “Substituted pyridine and pyrimidine derivatives and their use in treating viral infections” (priority 2008, dated 2014).

Structures are written as SMILES. Bounds are passed on as bounds.

One test deals with HCV replicon cells. As to the kind of experiment: Cell-based HCV replicon assay (replicon RNA level by real time PCR, Taqman). The conditions noted are these: Hepatitis C virus, 72 h, HCV replicon cells, harvested day 3, replicon RNA by real time PCR; reported as range class; read-out: EC90 (μM) range. On the procedure: Assays Cell-Based HCV Replicon Assay
To measure cell-based anti-HCV activity of the compounds of the present invention, replicon cells were seeded at 5000 cells/well in 96-well collagen I-coated Nunc plates in the presence of the compound of the invention. Various concentrations of a compound of the invention, typically in 10 serial 2-fold dilutions, were added to the assay mixture, the starting concentration of the compound ranging from 25 μM to 1 μM. The final concentration of DMSO was 0.5%, fetal bovine serum was 10%, in the assay media. Cells were harvested on day 3 by the addition of 1× cell lysis buffer (Ambion cat #8721). The replicon RNA level was measured using real time PCR (Taqman assay). The amplicon was located in 5B. The PCR primers were: 5B.2F, ATGGACAGGCGCCCTGA (SEQ. ID NO. 1); 5B.2R, […] (SEQ. ID NO. 2); the probe sequence was FAM-labeled CACGCCATGCGCTGCGG (SEQ. ID NO. 3). GAPDH RNA was used as endogenous control and was amplified in the same reaction as NS5B (multiplex PCR) using primers and VIC-labeled probe recommended by the manufacturer (PE Applied Biosystem). The real-time RT-PCR reactions were run on ABI PRISM 7900HT Sequence Detection System using the following program: 48′C for 30 min, 95° C. for 10 min, 40 cycles of 95° C. for 15 sec, 60° C. for 1 min. The ΔCT values (CT5B-CTGAPDH) were plotted against the concentration of test compound and fitted to the sigmoid dose-response model using GraphPad PRISM software. EC50 was defined as the concentration of inhibitor necessary to achieve ΔCT=1 over the projected baseline; EC90 the concentration necessary to achieve ΔCT=3.2 over the baseline. Alternatively, to quantitate the absolute amount of replicon RNA, a standard curve was established by including serially diluted T7 transcripts of replicon RNA in the Taqman assay. All Taqman reagents were from PE Applied Biosystems. Such an assay procedure was described in detail in e.g. Malcolm et al., Antimicrobial Agents and Chemotherapy 50: 1013-1020 (2006).
HCV Replicon assay data for compounds of the invention that were tested was obtained using the above method. Calculated EC90 values are reported for each compound in Table I as a falling within the following ranges: […]
Background: Replicon systems follow genome replication, usually without infectious particles.
One may read the EC90 as the point of the concentration-response curve where the effect stands at 90%. On to `Nc1nc(Cl)c(-c2ccc3c(c2)OCO3)c(N[C@@H]2C[C@H](CO)[C@@H](O)[C@H]2O)n1` [Example 151], for which the EC90 was greater than 5 µM. Still for that read-out and setting: the figure for `Nc1nc(Cl)c(-c2ccco2)c(N[C@@H]2C[C@H](CO)[C@@H](O)[C@H]2O)n1` [Example 152] is greater than 5 µM; for `Nc1nc(Cl)c(-c2cccs2)c(N[C@@H]2C[C@H](CO)[C@@H](O)[C@H]2O)n1` [Example 153] it is greater than 5 µM. Same read-out and setting: the result for `CC(=O)c1ccc(-c2c(Cl)nc(N)nc2N[C@@H]2C[C@H](CO)[C@@H](O)[C@H]2O)s1` [Example 154] reads greater than 5 µM. Consider `Nc1nc(Cl)c(-c2ccc(C=O)s2)c(N[C@@H]2C[C@H](CO)[C@@H](O)[C@H]2O)n1` [Example 155], for which the EC90 was greater than 5 µM. Still for that read-out and setting: the result for `Nc1nc(Cl)c(-c2ccc(C=O)o2)c(N[C@@H]2C[C@H](CO)[C@@H](O)[C@H]2O)n1` [Example 156] reads greater than 5 µM; that for `Nc1nc(Cl)c(-c2ccccn2)c(N[C@@H]2C[C@H](CO)[C@@H](O)[C@H]2O)n1` [Example 157], greater than 5 µM. On the same count and under the same terms, the figure for `Nc1nc(Cl)c(-c2cccc(N3CCOCC3)n2)c(N[C@@H]2C[C@H](CO)[C@@H](O)[C@H]2O)n1` [Example 158] is greater than 5 µM; for `Nc1nc(Cl)c(-c2cnccn2)c(N[C@@H]2C[C@H](CO)[C@@H](O)[C@H]2O)n1` [Example 159] it is greater than 5 µM; for `Nc1nc(N[C@@H]2C[C@H](CO)[C@@H](O)[C@H]2O)c(-c2ncccn2)c(-c2ncccn2)n1` [Example 160] it is greater than 5 µM. The same measure, in the same setting: the result for `Nc1nc(Cl)c(-c2cscn2)c(N[C@@H]2C[C@H](CO)[C@@H](O)[C@H]2O)n1` [Example 161] reads greater than 5 µM; that for `Nc1nc(N[C@@H]2C[C@H](CO)[C@@H](O)[C@H]2O)c(-c2ccccn2)c(-c2ccccn2)n1` [Example 162], greater than 5 µM. With `Nc1nc(Cl)c(-c2cncs2)c(N[C@@H]2C[C@H](CO)[C@@H](O)[C@H]2O)n1` [Example 163], the EC90 is greater than 5 µM. Regarding `Nc1nc(Cl)c(-c2cc3cc(F)ccc3o2)c(N[C@@H]2C[C@H](CO)[C@@H](O)[C@H]2O)n1` [Example 164], the EC90 is greater than 5 µM. Same read-out and setting: the figure for `Nc1nc(Cl)c(-c2cc3cc(Cl)ccc3o2)c(N[C@@H]2C[C@H](CO)[C@@H](O)[C@H]2O)n1` [Example 165] is greater than 5 µM; for `CN(C)C(=O)c1ccc2oc(-c3c(Cl)nc(N)nc3N[C@@H]3C[C@H](CO)[C@@H](O)[C@H]3O)cc2c1` [Example 168] it is greater than 5 µM; for `Nc1nc(Cl)c(-c2cc3cc(F)c(F)cc3o2)c(N[C@@H]2C[C@H](CO)[C@@H](O)[C@H]2O)n1` [Example 169] it is greater than 5 µM. Same read-out and setting: the result for `Nc1nc(Cl)c(-c2cc3cc(F)cc(F)c3o2)c(N[C@@H]2C[C@H](CO)[C@@H](O)[C@H]2O)n1` [Example 170] reads greater than 5 µM.

For the compound `N#Cc1ccc2oc(-c3c(Cl)nc(N)nc3N[C@@H]3C[C@H](CO)[C@@H](O)[C@H]3O)cc2c1` [Example 171], the EC90 is greater than 5 µM. Still for that read-out and setting: the figure for `CNC(=O)c1ccc2oc(-c3c(Cl)nc(N)nc3N[C@@H]3C[C@H](CO)[C@@H](O)[C@H]3O)cc2c1` [Example 172] is greater than 5 µM; for `NC(=O)c1ccc2oc(-c3c(Cl)nc(N)nc3N[C@@H]3C[C@H](CO)[C@@H](O)[C@H]3O)cc2c1` [Example 173] it is greater than 5 µM.

With `Nc1nc(Cl)c(-c2cc3cc(-c4ccccc4)ccc3o2)c(N[C@@H]2C[C@H](CO)[C@@H](O)[C@H]2O)n1` [Example 174], the EC90 was greater than 5 µM. On the same count and under the same terms, the result for `Nc1nc(Cl)c(-c2cc3cc(C(=O)N4CCOCC4)ccc3o2)c(N[C@@H]2C[C@H](CO)[C@@H](O)[C@H]2O)n1` [Example 175] reads greater than 5 µM. Take `CN(C)C(=O)c1ccc2cc(-c3c(Cl)nc(N)nc3N[C@@H]3C[C@H](CO)[C@@H](O)[C@H]3O)oc2c1` [Example 176]: the EC90 was greater than 5 µM. The same measure, in the same setting: the figure for `CNC(=O)c1ccc2cc(-c3c(Cl)nc(N)nc3N[C@@H]3C[C@H](CO)[C@@H](O)[C@H]3O)oc2c1` [Example 177] is greater than 5 µM. The same measure, in the same setting: the figure for `NC(=O)c1ccc2cc(-c3c(Cl)nc(N)nc3N[C@@H]3C[C@H](CO)[C@@H](O)[C@H]3O)oc2c1` [Example 178] is greater than 5 µM; for `Nc1nc(Cl)c(-c2cc3ccc(C(=O)N4CCOCC4)cc3o2)c(N[C@@H]2C[C@H](CO)[C@@H](O)[C@H]2O)n1` [Example 179] it is greater than 5 µM. Still for that read-out and setting: the figure for `Nc1nc(Cl)c(-c2cc3cc(-c4nc5ccccc5o4)ccc3o2)c(N[C@@H]2C[C@H](CO)[C@@H](O)[C@H]2O)n1` [Example 180] is greater than 5 µM; for `COc1ccc2nc(-c3c(Cl)nc(N)nc3N[C@@H]3C[C@H](CO)[C@@H](O)[C@H]3O)sc2c1` [Example 181] it is less than 0.5 µM; for `CCOc1ccc2nc(-c3c(Cl)nc(N)nc3N[C@@H]3C[C@H](CO)[C@@H](O)[C@H]3O)sc2c1` [Example 182] it is less than 0.5 µM. As to `Nc1nc(Cl)c(-c2nc3c(Cl)cccc3s2)c(N[C@@H]2C[C@H](CO)[C@@H](O)[C@H]2O)n1` [Example 183], the EC90 was in the range of 0.5 to 5 µM.

As for `CC1(C)O[C@@H]2[C@@H](CO)C[C@@H](Nc3nc(N)nc(Cl)c3-c3nc4ccccc4s3)[C@@H]2O1` [Example 184], the EC90 is less than 0.5 µM.

Turning to `CC1(C)O[C@@H]2[C@@H](CO)C[C@@H](Nc3nc(N)nc(-c4nc5c(F)cc(F)cc5s4)c3-c3nc4c(F)cc(F)cc4s3)[C@@H]2O1` [Example 185], the EC90 is greater than 5 µM. Same read-out and setting: the figure for `CC1(C)O[C@@H]2[C@@H](CO)C[C@@H](Nc3nc(N)nc(Cl)c3-c3nc4c(F)cc(F)cc4s3)[C@@H]2O1` [Example 186] is 0.5 to 5 µM; for `Nc1nc(Cl)c(-c2nc3ccc(Cl)cc3s2)c(N[C@@H]2C[C@H](CO)[C@@H](O)[C@H]2O)n1` [Example 188] it is greater than 5 µM. Same read-out and setting: the figure for `Nc1nc(Cl)c(-c2nc3c(F)cc(F)cc3s2)c(N[C@@H]2C[C@H](CO)[C@@H](O)[C@H]2O)n1` [Example 189] is 0.5 to 5 µM; for `Cc1ccc2nc(-c3c(Cl)nc(N)nc3N[C@@H]3C[C@H](CO)[C@H]4OC(C)(C)O[C@H]43)oc2c1` [Example 190] it is greater than 5 µM; for `Cc1ccc2nc(-c3c(Cl)nc(N)nc3N[C@@H]3C[C@H](CO)[C@@H](O)[C@H]3O)oc2c1` [Example 191] it is 0.5 to 5 µM.

With `Cc1ccc2oc(-c3c(Cl)nc(N)nc3N[C@@H]3C[C@H](CO)[C@H]4OC(C)(C)O[C@H]43)nc2c1` [Example 192], the EC90 is greater than 5 µM. Same read-out and setting: the result for `Cc1ccc2oc(-c3c(Cl)nc(N)nc3N[C@@H]3C[C@H](CO)[C@@H](O)[C@H]3O)nc2c1` [Example 193] reads greater than 5 µM. Still for that read-out and setting: the figure for `CNc1ccc2sc(-c3c(Cl)nc(N)nc3N[C@@H]3C[C@H](CO)[C@@H](O)[C@H]3O)nc2c1` [Example 194] is less than 0.5 µM.

Staying with this test, now noted: Hepatitis C virus, 72 h, HCV replicon cells, harvested on day 3, replicon RNA by real time PCR; calculated EC90 reported as range class; read-out: EC90 (μM) range.
Consider `CCOCCNc1nc(C)c(-c2cc3cc(C(F)(F)F)ncc3o2)c(N[C@@H]2C[C@H](CO)[C@H]3OC(C)(C)O[C@H]32)n1` [Example 134], for which the EC90 was greater than 5 µM.

`COCCNc1nc(C)c(-c2cc3cc(C(F)(F)F)ncc3o2)c(N[C@@H]2C[C@H](CO)[C@H]3OC(C)(C)O[C@H]32)n1` [Example 135]: the EC90 was greater than 5 µM.

As for `Cc1nc(NC(CF)CF)nc(N[C@@H]2C[C@H](CO)[C@H]3OC(C)(C)O[C@H]32)c1-c1nc2ccccc2s1` [Example 136], the EC90 is 0.5 to 5 µM. On to `CCOCCNc1nc(C)c(-c2nc(C)c(C)s2)c(N[C@@H]2C[C@H](CO)[C@@H](O)[C@H]2O)n1` [Example 137], for which the concentration for an effect of 90% (EC90) was 0.5 to 5 µM.

Turning to `CCOCCNc1nc(C)c(-c2cc3cc(C(F)(F)F)ncc3o2)c(N[C@@H]2C[C@H](CO)[C@@H](O)[C@H]2O)n1` [Example 138], the EC90 was less than 0.5 µM. Still for that read-out and setting: the figure for `COCCNc1nc(C)c(-c2cc3cc(C(F)(F)F)ncc3o2)c(N[C@@H]2C[C@H](CO)[C@@H](O)[C@H]2O)n1` [Example 139] is 0.5 to 5 µM; for `Cc1nc(NCC(F)(F)F)nc(N[C@@H]2C[C@H](CO)[C@H]3OC(C)(C)O[C@H]32)c1-c1cc2cc(C(F)(F)F)ncc2o1` [Example 140] it is 0.5 to 5 µM; for `Cc1nc(NCC2CC2)nc(N[C@@H]2C[C@H](CO)[C@H]3OC(C)(C)O[C@H]32)c1-c1cc2cc(C(F)(F)F)ncc2o1` [Example 141] it is 0.5 to 5 µM. Same read-out and setting: the figure for `Cc1nc(NCC(F)(F)F)nc(N[C@@H]2C[C@H](CO)[C@@H](O)[C@H]2O)c1-c1cc2cc(C(F)(F)F)ncc2o1` [Example 142] is 0.5 to 5 µM. On the same count and under the same terms, the figure for `Cc1nc(NCC2CC2)nc(N[C@@H]2C[C@H](CO)[C@@H](O)[C@H]2O)c1-c1cc2cc(C(F)(F)F)ncc2o1` [Example 143] is 0.5 to 5 µM.
